Structures are written as SMILES.

Test [1] is described as follows: Activation of NF-kappaB (unknown origin). Details: species or system Homo sapiens; call rule not given here.
Test [2] is described as follows: Activation of NF-kappaB (unknown origin) relative to control. The following applies: Homo sapiens.
For the next test, the species on record is Homo sapiens. The experiment in a line: Potency index, ratio of SRI-22818 EC50 to test compound EC50 for activation of NF-kappaB (unknown origin).

As a reminder, the EC50 is the concentration that produces a half-maximal response. As a reminder, the Emax is the greatest response seen or fitted, relative to the assay's reference. Consider `O=C(/C=C\Nc1ccccc1Br)c1ccc2c(c1)OCO2`, for which the EC50 in test [1] (read-out: EC50) turned out to be 500 nM. Further, in test [2], the Emax worked out at 26%.

As to `O=C(c1ccc2c(c1)OCO2)c1ccn(-c2cccc(F)c2)c1`, in test [1] (read-out: EC50), the concentration for a half-maximal effect (EC50) is 17700 nM. This compound had an Emax in test [2] of 13.8%.

`O=C(/C=C\Nc1ccccc1Br)c1ccccn1`: in test [1], the EC50 entry was “Not Active”.

For `O=C(c1ccc2c(c1)OCO2)c1ccn(-c2ccccc2Br)c1`, in test [1], the concentration for a half-maximal effect (EC50) entry is “Not Active”.

Regarding `Cc1ccccc1-n1ccc(C(=O)c2ccc3c(c2)OCO3)c1`, the EC50 in test [1] (read-out: EC50) was 22400 nM. This compound came in with an Emax in test [2] of 10%.

As for `O=C(c1ccccn1)c1c[nH]c2c(Br)cccc12`, the EC50 result in test [1] is “Not Active”.

For the compound `O=C(/C=C\Nc1ccccc1F)c1ccccn1`, in test [1] (read-out: EC50), the EC50 was 1000 nM. The compound also gave an Emax in test [2] of 20%.

`Fc1ccccc1-n1ccc(CNc2ccc3c(c2)OCO3)c1`: the half-maximal effective concentration (EC50) in test [1] (read-out: EC50) turned out to be 15000 nM. In test [2], this compound registered a maximal response (Emax) of 10.4%.

As for `O=C(/C=C\Nc1ccccc1F)c1ccc2c(c1)OCO2`, the concentration giving a half-maximal response (EC50) in test [1] (read-out: EC50) was 320 nM. The Emax in test [2] is 22%.

Take `Cc1ccc(C(=O)c2ccn(-c3ccccc3F)c2)cc1C`: the EC50 in test [1] (read-out: EC50) was found to be 11900 nM. This compound also had an Emax in test [2] of 19.9%.

Consider `O=C(c1ccncc1)c1c[nH]c2c(Br)cccc12`, for which, in test [1], the EC50 entry is reported as “Not Active”.

Take `Cc1cccc2c(C(=O)c3ccc4c(c3)OCO4)c[nH]c12`: the EC50 in test [1] (read-out: EC50) turned out to be 43200 nM. Moreover, the Emax in test [2] stood at 23%.

With `O=C(c1ccc2c(c1)OCO2)c1ccn(-c2ccc(F)cc2)c1`, the EC50 in test [1] (read-out: EC50) was found to be 12900 nM. The compound further yielded an Emax in test [2] of 13.2%.

On to `O=C(c1ccc2c(c1)OCO2)c1c[nH]c2c(Br)cccc12`, for which, in test [1] (read-out: EC50), the EC50 was determined as 21400 nM. The compound also displayed an Emax in test [2] of 18%.

For `COc1ccccc1N/C=C\C(=O)c1ccc2c(c1)OCO2`, in test [1] (read-out: EC50), the EC50 is 3900 nM. In test [2], the Emax came out at 14%.

On to `COc1ccccc1N/C=C\C(=O)c1ccccn1`, for which, in test [1] (read-out: EC50), the EC50 came out at 200 nM. The same compound yielded a maximal effect (Emax) in test [2] of 8%.

For `Cc1ccccc1N/C=C\C(=O)c1ccc2c(c1)OCO2`, in test [1] (read-out: EC50), the EC50 was found to be 800 nM. In test [2], the maximal effect (Emax) was found to be 24%.

`O=C(c1ccc(F)c(F)c1)c1c[nH]c2cc(Br)ccc12`: the EC50 result in test [1] is given as “Not Active”.

For `COc1ccc(C(=O)c2c[nH]c3cc(Br)ccc23)cc1OC`, the EC50 entry in test [1] is “Not Active”.

On to `O=C(c1ccc2c(c1)OCO2)c1c[nH]c2cc(F)ccc12`, for which the EC50 in test [1] (read-out: EC50) came out at 4400 nM. The compound further returned an Emax in test [2] of 8.6%.

Regarding `O=C(CCNc1ccccc1Br)c1ccc2c(c1)OCO2`, in test [1], the 50% effective concentration (EC50) entry is on record as “Not Active”.

Take `O=C(c1ccc2c(c1)OCO2)c1c[nH]c2cnccc12`: the 50% effective concentration (EC50) entry in test [1] is “Not Active”.

Turning to `O=C(c1ccc2c(c1)OCO2)c1c[nH]c2cc(Cl)ccc12`, in test [1] (read-out: EC50), the EC50 is 1200 nM. The Emax in test [2] is 13.2%.

For `O=C(c1ccc(Cl)c(Cl)c1)c1c[nH]c2cc(Br)ccc12`, the half-maximal effective concentration (EC50) result in test [1] was “Not Active”.

As for `Cn1cc(C(=O)c2ccc3c(c2)OCO3)c2cccc(Br)c21`, the EC50 result in test [1] is “Not Active”.

Turning to `O=C(c1ccc2c(c1)OCO2)c1c[nH]c2cccc(Br)c12`, the EC50 result in test [1] is given as “Not Active”.

Take `Cc1ccccc1N/C=C\C(=O)c1ccccn1`: in test [1] (read-out: EC50), the EC50 worked out at 300 nM. In test [2], this compound had an Emax of 17%.

Turning to `O=C(c1ccccc1)c1c[nH]c2c(Br)cccc12`, in test [1], the EC50 entry is “Not Active”.

With `O=C(/C=C\Nc1ccccc1Cl)c1ccc2c(c1)OCO2`, the EC50 in test [1] (read-out: EC50) amounted to 500 nM. In addition, the Emax in test [2] amounted to 24%.

With `Cc1cccnc1N/C=C\C(=O)c1ccccn1`, the EC50 in test [1] (read-out: EC50) came out at 900 nM. This compound yielded an Emax in test [2] of 22%.

Take `O=C(c1ccc(F)c(F)c1)c1ccn(-c2ccccc2F)c1`: in test [1] (read-out: EC50), the EC50 was 5840 nM. The compound further showed an Emax in test [2] of 13%.

Regarding `O=C(/C=C\Nc1ccccc1Cl)c1ccccn1`, the EC50 result in test [1] is “Not Active”.

For `O=C(c1ccc2c(c1)OCO2)c1ccccc1Nc1ccccc1Br`, the EC50 entry in test [1] was “Not Active”.

As for `O=C(c1ccc2c(c1)OCO2)c1c[nH]c2c(F)cccc12`, in test [1] (read-out: EC50), the EC50 came out at 13400 nM. This compound displayed an Emax in test [2] of 18%.

For `O=C(c1ccc2c(c1)OCO2)c1ccn(-c2ccccc2F)c1`, the EC50 in test [1] (read-out: EC50) stood at 3210 nM. Besides, in test [2], the Emax stood at 12.5%.

With `COc1cccnc1N/C=C\C(=O)c1ccc2c(c1)OCO2`, the EC50 in test [1] (read-out: EC50) was 3300 nM. The maximum response (Emax) in test [2] came to 12%.

Consider `O=C(/C=C\Nc1ncccc1C(F)(F)F)c1ccc2c(c1)OCO2`, for which, in test [1] (read-out: EC50), the EC50 came to 800 nM. Besides, in test [2], the Emax was determined as 23%.

On to `O=C(/C=C\Nc1ncccc1F)c1ccccn1`, for which the EC50 in test [1] (read-out: EC50) worked out at 900 nM. This compound returned an Emax in test [2] of 14%.

Regarding `COc1cccnc1N/C=C\C(=O)c1ccccn1`, in test [1] (read-out: EC50), the EC50 came out at 300 nM. Also, the maximal response (Emax) in test [2] is 24%.

Consider `O=C(/C=C\Nc1ccccc1)c1ccc2c(c1)OCO2`, for which the EC50 in test [1] (read-out: EC50) turned out to be 400 nM. Besides, the Emax in test [2] was determined as 11%.

Take `O=C(/C=C\Nc1ncccc1F)c1ccc2c(c1)OCO2`: the concentration giving a half-maximal response (EC50) in test [1] (read-out: EC50) came to 100 nM. Also, the Ratio EC50 in the test listed under Homo sapiens stood at 5. Further, the Emax in test [2] was 17%.

Regarding `O=C(c1ccc2c(c1)OCO2)c1c[nH]c2ccc(Br)cc12`, in test [1] (read-out: EC50), the concentration giving a half-maximal response (EC50) was found to be 4500 nM. In test [2], this compound gave an Emax of 3%.

Turning to `O=C(Nc1ccc2c(c1)OCO2)c1ccn(-c2ccccc2F)c1`, the EC50 in test [1] (read-out: EC50) stood at 11300 nM. Also, the Emax in test [2] came to 34%.

Turning to `Cc1cccnc1N/C=C\C(=O)c1ccc2c(c1)OCO2`, the EC50 in test [1] (read-out: EC50) turned out to be 300 nM. Further, the maximal response (Emax) in test [2] worked out at 22%.

With `O=C(c1ccc2c(c1)OCO2)c1ccn(-c2ccccc2Cl)c1`, the EC50 in test [1] (read-out: EC50) came to 7800 nM. In test [2], this compound showed an Emax of 15.1%.

Consider `O=C(/C=C\Nc1ccccc1C(F)(F)F)c1ccccn1`, for which the EC50 in test [1] (read-out: EC50) was 1400 nM. In addition, the Emax in test [2] came out at 16%.

As for `O=C(c1ccc2c(c1)OCO2)c1c[nH]c2cc(Br)ccc12`, the EC50 in test [1] (read-out: EC50) was 1000 nM. The compound further registered an Emax in test [2] of 11.2%.

For the compound `Cc1ccc(C(=O)c2c[nH]c3cc(Br)ccc23)cc1C`, the EC50 result in test [1] was “Not Active”.

In the case of `O=C(/C=C\Nc1ncccc1C(F)(F)F)c1ccccn1`, the concentration for a half-maximal effect (EC50) in test [1] (read-out: EC50) was found to be 700 nM. The Emax in test [2] turned out to be 16%.

Consider `O=C(c1ccc(Cl)c(Cl)c1)c1ccn(-c2ccccc2F)c1`, for which the concentration for a half-maximal effect (EC50) in test [1] (read-out: EC50) is 7710 nM. Besides, in test [2], the Emax amounted to 8.3%.

Consider `O=C(/C=C\Nc1ccccc1C(F)(F)F)c1ccc2c(c1)OCO2`, for which the EC50 in test [1] (read-out: EC50) worked out at 3100 nM. In addition, the Emax in test [2] was 8%.

For the origin of these results see ChEMBL document CHEMBL4610056, “Development of novel small molecules for the treatment of ALS” (Bioorg Med Chem Lett, 2020).
